Results as given in ChEMBL document CHEMBL4028801, “A multifactorial approach to hepatobiliary transporter assessment enables improved therapeutic compound development” (Toxicol Sci, 2013).
Where a name gives a salt, the structure may show the parent alone.

Key:
Bile salt export pump = Bile salt export pump (Homo sapiens, UniProt O95342); test: Inhibition of human BSEP overexpressed in Sf9 cell membrane vesicles assessed as uptake of [3H]-taurocholate in presence of ATP measured after 15 to 20 mins by membrane vesicle transport assay; assay type: ADME, cell-based
Bile salt export pump, sequence (O95342 whole entry): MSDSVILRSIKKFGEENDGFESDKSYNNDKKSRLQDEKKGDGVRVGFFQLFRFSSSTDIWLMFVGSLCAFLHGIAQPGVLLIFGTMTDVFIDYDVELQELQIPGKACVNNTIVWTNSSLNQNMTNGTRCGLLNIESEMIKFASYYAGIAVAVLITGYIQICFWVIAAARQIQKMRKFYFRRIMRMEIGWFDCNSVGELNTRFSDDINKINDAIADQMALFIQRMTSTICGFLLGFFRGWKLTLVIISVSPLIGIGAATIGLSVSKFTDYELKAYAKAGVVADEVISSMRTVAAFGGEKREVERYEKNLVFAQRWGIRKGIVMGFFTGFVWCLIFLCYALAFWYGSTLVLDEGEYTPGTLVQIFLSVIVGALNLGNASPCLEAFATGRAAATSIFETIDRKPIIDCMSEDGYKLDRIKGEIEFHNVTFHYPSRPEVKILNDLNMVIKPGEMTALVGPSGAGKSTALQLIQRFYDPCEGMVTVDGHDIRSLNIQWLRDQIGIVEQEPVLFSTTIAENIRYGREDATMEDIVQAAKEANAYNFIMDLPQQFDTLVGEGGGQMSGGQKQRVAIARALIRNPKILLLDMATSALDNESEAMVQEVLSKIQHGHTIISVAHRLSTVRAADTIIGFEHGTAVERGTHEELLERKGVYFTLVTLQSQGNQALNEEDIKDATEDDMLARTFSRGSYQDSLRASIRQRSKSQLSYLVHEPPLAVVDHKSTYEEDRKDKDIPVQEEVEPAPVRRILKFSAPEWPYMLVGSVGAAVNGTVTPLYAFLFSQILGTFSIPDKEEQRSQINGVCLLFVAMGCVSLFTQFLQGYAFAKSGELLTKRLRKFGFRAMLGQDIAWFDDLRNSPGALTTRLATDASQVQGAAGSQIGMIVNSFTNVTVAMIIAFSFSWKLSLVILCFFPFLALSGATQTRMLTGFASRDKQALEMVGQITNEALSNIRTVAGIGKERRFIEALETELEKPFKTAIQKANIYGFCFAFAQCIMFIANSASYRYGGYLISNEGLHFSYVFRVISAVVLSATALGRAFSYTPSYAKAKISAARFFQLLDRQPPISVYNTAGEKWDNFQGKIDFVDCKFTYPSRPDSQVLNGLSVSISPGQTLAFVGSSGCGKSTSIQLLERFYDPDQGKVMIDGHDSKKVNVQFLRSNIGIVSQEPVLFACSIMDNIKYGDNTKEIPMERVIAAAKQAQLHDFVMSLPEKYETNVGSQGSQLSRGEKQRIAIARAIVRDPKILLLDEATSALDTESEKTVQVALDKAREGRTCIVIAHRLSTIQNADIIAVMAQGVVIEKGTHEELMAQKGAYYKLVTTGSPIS

[1] = biological target: ATP-binding cassette sub-family C member 3 (Homo sapiens, UniProt O15438); test: Inhibition of human MRP3 overexpressed in Sf9 insect cell membrane vesicles assessed as uptake of [3H]-estradiol-17beta-D-glucuronide in presence of ATP and GSH measured after 10 mins by membrane vesicle transport assay; assay type: ADME, cell-based
ATP-binding cassette sub-family C member 3, sequence (O15438 whole entry): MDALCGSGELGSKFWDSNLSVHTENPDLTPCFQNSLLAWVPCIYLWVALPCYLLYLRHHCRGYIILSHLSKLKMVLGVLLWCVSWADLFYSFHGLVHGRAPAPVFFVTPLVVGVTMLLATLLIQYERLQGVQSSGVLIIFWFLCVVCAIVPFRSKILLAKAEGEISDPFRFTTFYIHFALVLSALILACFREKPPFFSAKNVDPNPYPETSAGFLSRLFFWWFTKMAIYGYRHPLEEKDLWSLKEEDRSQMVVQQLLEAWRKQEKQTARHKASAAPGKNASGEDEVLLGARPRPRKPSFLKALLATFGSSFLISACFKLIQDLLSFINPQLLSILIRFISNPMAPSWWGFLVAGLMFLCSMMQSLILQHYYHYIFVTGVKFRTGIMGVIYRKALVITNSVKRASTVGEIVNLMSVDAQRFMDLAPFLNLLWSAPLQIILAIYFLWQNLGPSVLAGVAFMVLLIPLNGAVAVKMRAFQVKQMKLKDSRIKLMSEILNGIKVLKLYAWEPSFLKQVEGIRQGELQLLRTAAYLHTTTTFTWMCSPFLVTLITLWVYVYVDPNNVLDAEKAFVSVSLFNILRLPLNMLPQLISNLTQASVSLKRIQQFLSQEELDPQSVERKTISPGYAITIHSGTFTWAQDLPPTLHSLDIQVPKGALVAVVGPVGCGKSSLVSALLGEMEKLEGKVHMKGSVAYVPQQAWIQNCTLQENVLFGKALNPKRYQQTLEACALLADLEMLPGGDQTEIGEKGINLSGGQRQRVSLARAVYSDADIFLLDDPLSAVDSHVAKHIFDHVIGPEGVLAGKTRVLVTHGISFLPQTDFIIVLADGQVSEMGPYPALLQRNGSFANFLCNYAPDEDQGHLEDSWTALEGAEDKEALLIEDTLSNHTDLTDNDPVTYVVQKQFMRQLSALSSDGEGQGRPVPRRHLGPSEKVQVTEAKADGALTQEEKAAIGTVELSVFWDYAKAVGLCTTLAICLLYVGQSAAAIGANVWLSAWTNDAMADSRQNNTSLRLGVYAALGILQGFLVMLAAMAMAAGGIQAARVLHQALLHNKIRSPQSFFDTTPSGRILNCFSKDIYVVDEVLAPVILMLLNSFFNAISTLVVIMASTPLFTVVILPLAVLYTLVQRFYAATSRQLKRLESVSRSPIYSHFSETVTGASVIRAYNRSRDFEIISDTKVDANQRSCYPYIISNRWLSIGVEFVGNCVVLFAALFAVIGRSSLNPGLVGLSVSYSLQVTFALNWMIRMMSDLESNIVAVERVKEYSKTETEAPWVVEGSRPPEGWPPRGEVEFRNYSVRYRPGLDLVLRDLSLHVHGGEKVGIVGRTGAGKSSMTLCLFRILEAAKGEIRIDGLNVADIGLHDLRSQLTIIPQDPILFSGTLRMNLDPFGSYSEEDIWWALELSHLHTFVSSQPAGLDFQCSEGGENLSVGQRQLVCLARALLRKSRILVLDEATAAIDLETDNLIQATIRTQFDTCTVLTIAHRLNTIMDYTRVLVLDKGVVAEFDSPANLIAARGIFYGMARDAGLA

[2] = biological target: T1, ATP-binding cassette sub-family C member 4 (Homo sapiens, UniProt O15439); test: Inhibition of human MRP4 overexpressed in Sf9 cell membrane vesicles assessed as uptake of [3H]-estradiol-17beta-D-glucuronide in presence of ATP and GSH measured after 20 mins by membrane vesicle transport assay; assay type: ADME, cell-based
T1 sequence (O15439 whole entry): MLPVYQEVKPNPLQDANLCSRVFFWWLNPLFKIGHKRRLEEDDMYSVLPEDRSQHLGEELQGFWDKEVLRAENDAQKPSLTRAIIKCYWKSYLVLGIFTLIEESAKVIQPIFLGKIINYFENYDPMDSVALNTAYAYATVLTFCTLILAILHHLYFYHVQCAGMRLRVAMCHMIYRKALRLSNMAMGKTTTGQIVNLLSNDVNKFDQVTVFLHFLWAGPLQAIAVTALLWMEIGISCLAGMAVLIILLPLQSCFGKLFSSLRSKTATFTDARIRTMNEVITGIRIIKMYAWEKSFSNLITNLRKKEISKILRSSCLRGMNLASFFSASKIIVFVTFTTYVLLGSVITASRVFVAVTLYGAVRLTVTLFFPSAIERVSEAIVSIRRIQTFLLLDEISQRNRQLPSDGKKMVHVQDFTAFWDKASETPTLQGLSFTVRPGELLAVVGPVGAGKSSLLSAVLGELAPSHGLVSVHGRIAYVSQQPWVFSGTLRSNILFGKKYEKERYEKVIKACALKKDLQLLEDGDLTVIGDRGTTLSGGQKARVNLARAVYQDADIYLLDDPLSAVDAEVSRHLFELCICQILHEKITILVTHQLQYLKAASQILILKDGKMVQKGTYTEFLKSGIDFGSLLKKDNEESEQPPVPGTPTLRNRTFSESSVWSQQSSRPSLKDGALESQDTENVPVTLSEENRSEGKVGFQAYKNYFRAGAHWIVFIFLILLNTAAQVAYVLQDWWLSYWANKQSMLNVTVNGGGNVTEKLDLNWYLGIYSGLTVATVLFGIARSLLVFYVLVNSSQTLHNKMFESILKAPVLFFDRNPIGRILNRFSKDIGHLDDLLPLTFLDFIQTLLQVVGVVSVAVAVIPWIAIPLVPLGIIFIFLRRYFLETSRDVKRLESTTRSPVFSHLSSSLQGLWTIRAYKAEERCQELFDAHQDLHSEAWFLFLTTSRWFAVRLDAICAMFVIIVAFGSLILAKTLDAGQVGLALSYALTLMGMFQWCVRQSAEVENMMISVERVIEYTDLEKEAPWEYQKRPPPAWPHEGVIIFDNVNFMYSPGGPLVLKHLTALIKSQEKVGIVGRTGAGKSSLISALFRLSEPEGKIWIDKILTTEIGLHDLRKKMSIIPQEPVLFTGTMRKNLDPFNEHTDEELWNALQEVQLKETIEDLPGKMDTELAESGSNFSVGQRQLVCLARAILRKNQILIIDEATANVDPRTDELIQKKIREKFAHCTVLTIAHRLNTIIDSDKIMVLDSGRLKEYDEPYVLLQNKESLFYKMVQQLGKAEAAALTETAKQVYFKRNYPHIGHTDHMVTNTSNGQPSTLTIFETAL

[3] = biological target: ATP-binding cassette sub-family C member 2 (Homo sapiens, UniProt Q92887); test: Inhibition of human MRP2 overexpressed in Sf9 cell membrane vesicles assessed as uptake of [3H]-estradiol-17beta-D-glucuronide in presence of ATP and GSH measured after 20 mins by membrane vesicle transport assay
ATP-binding cassette sub-family C member 2, sequence (Q92887 whole entry): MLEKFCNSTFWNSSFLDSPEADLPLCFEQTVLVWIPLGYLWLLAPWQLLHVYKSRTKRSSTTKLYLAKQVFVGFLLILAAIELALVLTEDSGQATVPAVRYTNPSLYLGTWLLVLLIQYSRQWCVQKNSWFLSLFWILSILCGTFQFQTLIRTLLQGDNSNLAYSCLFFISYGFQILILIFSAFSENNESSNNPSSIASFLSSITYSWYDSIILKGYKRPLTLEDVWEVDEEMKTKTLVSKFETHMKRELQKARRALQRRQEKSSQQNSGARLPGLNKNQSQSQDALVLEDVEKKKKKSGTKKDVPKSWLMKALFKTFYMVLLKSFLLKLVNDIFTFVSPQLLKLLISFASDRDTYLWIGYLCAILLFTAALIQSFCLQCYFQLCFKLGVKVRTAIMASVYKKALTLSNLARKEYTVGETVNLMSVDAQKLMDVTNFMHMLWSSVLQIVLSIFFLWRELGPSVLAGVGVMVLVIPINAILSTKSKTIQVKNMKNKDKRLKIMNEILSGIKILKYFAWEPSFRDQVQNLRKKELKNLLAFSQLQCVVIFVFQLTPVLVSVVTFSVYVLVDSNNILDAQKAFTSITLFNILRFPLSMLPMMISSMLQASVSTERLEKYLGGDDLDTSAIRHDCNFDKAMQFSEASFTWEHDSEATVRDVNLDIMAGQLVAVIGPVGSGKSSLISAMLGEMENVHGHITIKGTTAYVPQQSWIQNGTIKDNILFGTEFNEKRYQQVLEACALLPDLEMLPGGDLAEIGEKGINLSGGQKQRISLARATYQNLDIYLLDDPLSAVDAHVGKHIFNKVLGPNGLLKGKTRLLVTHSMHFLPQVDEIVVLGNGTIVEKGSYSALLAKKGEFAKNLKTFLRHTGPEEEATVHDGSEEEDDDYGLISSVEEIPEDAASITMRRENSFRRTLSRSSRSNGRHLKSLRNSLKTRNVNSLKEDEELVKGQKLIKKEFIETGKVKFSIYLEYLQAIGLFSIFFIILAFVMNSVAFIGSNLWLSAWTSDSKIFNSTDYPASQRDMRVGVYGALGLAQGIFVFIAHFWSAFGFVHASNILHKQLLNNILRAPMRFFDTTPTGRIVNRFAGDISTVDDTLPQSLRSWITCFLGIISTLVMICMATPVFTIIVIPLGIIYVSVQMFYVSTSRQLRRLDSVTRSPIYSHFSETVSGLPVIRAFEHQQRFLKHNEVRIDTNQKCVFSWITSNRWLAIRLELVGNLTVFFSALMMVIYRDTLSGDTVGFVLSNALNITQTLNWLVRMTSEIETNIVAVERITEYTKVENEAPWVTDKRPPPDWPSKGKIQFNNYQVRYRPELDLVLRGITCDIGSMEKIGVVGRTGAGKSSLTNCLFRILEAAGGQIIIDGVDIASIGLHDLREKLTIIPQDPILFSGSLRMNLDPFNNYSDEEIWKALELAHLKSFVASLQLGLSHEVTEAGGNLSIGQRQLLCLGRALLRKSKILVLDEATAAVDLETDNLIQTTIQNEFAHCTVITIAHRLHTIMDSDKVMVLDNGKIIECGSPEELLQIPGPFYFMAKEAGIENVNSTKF

SMILES | IC50 (Bile salt export pump) [µM] | IC50 [1] [µM] | IC50 [2] [µM] | IC50 [3] [µM]
COc1c(O[C@@H]2O[C@H](CO)[C@@H](O)[C@H](O)[C@H]2O)cc2c(c1OC)-c1ccc(SC)c(=O)cc1[C@@H](NC(C)=O)CC2 [THIOCOLCHICOSIDE] | > 133 |  |  | 
C[C@@H](O)[C@H]1C(=O)N2C(C(=O)O)=C(SCCN=CN)C[C@H]12 | > 133 |  |  | 
C[C@](N)(Cc1ccc(O)c(O)c1)C(=O)O | > 133 | 41.2 | 8.08 | 
CCOC(=O)[C@H](CCc1ccccc1)N[C@@H](C)C(=O)N1Cc2ccccc2C[C@H]1C(=O)O | 94 | > 133 | > 133 | 
CC(=O)[C@H]1[C@H](C#N)C[C@H]2[C@@H]3CC=C4C[C@@H](O)CC[C@]4(C)[C@H]3CC[C@@]21C [PREGNENOLONE CARBONITRILE] | > 133 | > 133 | > 133 | 
CC(C)(Oc1ccc(C2CC2(Cl)Cl)cc1)C(=O)O (configuration not stated) [CIPROFIBRATE] | > 133 | > 133 | > 133 | 
CN1CCN2c3ncccc3Cc3ccccc3C2C1 (configuration not stated) [MIRTAZAPINE] |  | > 133 | > 133 | > 133
Cc1ncc([N+](=O)[O-])n1CCO [METRONIDAZOLE] |  | > 133 | > 133 | > 133
COc1ccc([C@@H]2Sc3ccccc3N(CCN(C)C)C(=O)[C@@H]2OC(C)=O)cc1 [DILTIAZEM] |  | > 133 | > 133 | > 133
CC(C)[C@@H]1NC(=O)[C@H](C)OC(=O)[C@@H](C(C)C)NC(=O)[C@@H](C(C)C)OC(=O)[C@H](C(C)C)NC(=O)[C@H](C)OC(=O)[C@@H](C(C)C)NC(=O)[C@@H](C(C)C)OC(=O)[C@H](C(C)C)NC(=O)[C@H](C)OC(=O)[C@@H](C(C)C)NC(=O)[C@@H](C(C)C)OC1=O [VALINOMYCIN] |  | > 133 | > 133 | > 133
NC(=O)NO [HYDROXYUREA] |  | > 133 | > 133 | > 133
Nc1nnc(-c2cccc(Cl)c2Cl)c(N)n1 [LAMOTRIGINE] | > 133 |  |  | 
C[C@@H](O)[C@H]1C(=O)N2C(C(=O)O)=C(S[C@@H]3CN[C@H](CNS(N)(=O)=O)C3)[C@H](C)[C@H]12 [DORIPENEM] |  | > 133 | > 133 | > 133
Nc1ccn([C@@H]2CS[C@H](CO)O2)c(=O)n1 [LAMIVUDINE] |  | > 133 | > 133 | > 133
COCCc1ccc(OCC(O)CNC(C)C)cc1 (configuration not stated) [METOPROLOL] |  | > 133 | > 133 | > 133
CN1[C@@H]2CC[C@H]1C[C@@H](OC(=O)C(CO)c1ccccc1)C2 (mixture of isomers) [ATROPINE] |  | > 133 | > 133 | > 133
CC(C)(S)[C@@H](N)C(=O)O [PENICILLAMINE] | > 133 |  |  | 
Nc1cc(N2CCCCC2)nc(N)[n+]1[O-] [MINOXIDIL] |  | > 133 | > 133 | > 133
CN(C)CCCN1c2ccccc2CCc2ccccc21 [IMIPRAMINE] |  | > 133 | > 133 | > 133
Cn1cnc([N+](=O)[O-])c1Sc1ncnc2nc[nH]c12 [AZATHIOPRINE] |  | > 133 | > 133 | > 133
O=C(O)[C@H]1/C(=C/CO)O[C@@H]2CC(=O)N21 [CLAVULANATE POTASSIUM] | > 133 |  |  | 
CNC(=C[N+](=O)[O-])NCCSCc1ccc(CN(C)C)o1 [RANITIDINE] |  | > 133 | > 133 | > 133
COCCOC(=O)C1=C(C)NC(C)=C(C(=O)OC(C)C)C1c1cccc([N+](=O)[O-])c1 (configuration not stated) [NIMODIPINE] |  | > 133 | > 133 | > 133
CNCCC(Oc1ccc(C(F)(F)F)cc1)c1ccccc1 (configuration not stated) [FLUOXETINE] |  | > 133 | > 133 | > 133

SMILES | IC50 (Bile salt export pump) [µM] | IC50 [1] [µM] | IC50 [2] [µM] | IC50 [3] [µM]
COC[C@H]1OC(=O)c2coc3c2[C@@]1(C)C1=C(C3=O)[C@@H]2CCC(=O)[C@@]2(C)C[C@H]1OC(C)=O [WORTMANNIN] |  | > 133 | 63.2 | 46.1
CNCCCC12CCC(c3ccccc31)c1ccccc12 [MAPROTILINE] |  | > 133 | > 133 | > 133
CN(C)CCC(c1ccc(Br)cc1)c1ccccn1 (configuration not stated) [BROMPHENIRAMINE MALEATE] |  | > 133 | > 133 | > 133
C[C@@H](c1ncncc1F)[C@](O)(Cn1cncn1)c1ccc(F)cc1F [VORICONAZOLE] |  | > 133 | > 133 | > 133
CC(C)NCC(O)COc1cccc2[nH]ccc12 (configuration not stated) [PINDOLOL] |  | > 133 | > 133 | > 133
C[C@]12CC[C@H]3[C@@H](CCC4=CC(=O)CC[C@@]43C)[C@@H]1CC[C@@H]2O [TESTOSTERONE] |  | > 133 | > 133 | > 133
CN(C)CC[C@@H](c1ccc(Br)cc1)c1ccccn1 [DEXBROMPHENIRAMINE MALEATE] |  | > 133 | > 133 | > 133
COc1cc2nc(N(C)CCCNC(=O)C3CCCO3)nc(N)c2cc1OC (configuration not stated) [ALFUZOSIN HYDROCHLORIDE] | > 133 |  |  | 
COc1cccc([C@]2(O)CCCC[C@H]2CN(C)C)c1 | > 133 |  |  | 
Cc1ccc(O)c([C@H](CCN(C(C)C)C(C)C)c2ccccc2)c1 [TOLTERODINE TARTRATE] |  | > 133 | > 133 | > 133
CN[C@@H]1C[C@H]2O[C@@](C)([C@@H]1OC)n1c3ccccc3c3c4c(c5c6ccccc6n2c5c31)C(=O)NC4 [STAUROSPORINE] |  | > 133 | 37.9 | > 133
CN/C(=N/CCSCc1nc[nH]c1C)NC#N [CIMETIDINE] |  | > 133 | > 133 | > 133
COc1cc([C@@H]2c3cc4c(cc3[C@@H](O[C@@H]3O[C@@H]5CO[C@@H](C)O[C@H]5[C@H](O)[C@H]3O)[C@H]3COC(=O)[C@H]23)OCO4)cc(OC)c1O [ETOPOSIDE] |  | > 133 | > 133 | > 133
O=C(O)c1cn(C2CC2)c2cc(N3CCNCC3)c(F)cc2c1=O [CIPROFLOXACIN] |  | > 133 | > 133 | > 133
COc1cc2c(c(OC)c1OC)-c1ccc(OC)c(=O)cc1[C@@H](NC(C)=O)CC2 [COLCHICINE] |  | > 133 | > 133 | > 133
CC(C)(C)NCC(O)c1ccc(O)c(CO)c1 (configuration not stated) [ALBUTEROL] |  | > 133 | > 133 | > 133
CCN(CC)CCCC(C)Nc1ccnc2cc(Cl)ccc12 (configuration not stated) [CHLOROQUINE] |  | > 133 | 104 | > 133
N#Cc1ccc(C(c2ccc(C#N)cc2)n2cncn2)cc1 [LETROZOLE] | > 133 |  |  | 
Cc1nc2n(c(=O)c1CCN1CCC(c3noc4cc(F)ccc34)CC1)CCCC2 [RISPERIDONE] |  | > 133 | > 133 | > 133
OCCOCCN1CCN(C2=Nc3ccccc3Sc3ccccc32)CC1 [QUETIAPINE FUMARATE] |  | > 133 | > 133 | > 133
OC[C@H]1O[C@@H](n2cnc3c2NC=NC[C@H]3O)C[C@@H]1O [PENTOSTATIN] | > 133 |  |  | 
COCCCOc1cc(C[C@@H](C[C@H](N)[C@@H](O)C[C@H](C(=O)NCC(C)(C)C(N)=O)C(C)C)C(C)C)ccc1OC [ALISKIREN FUMARATE] | > 133 |  |  | 
O=C1CN(/N=C/c2ccc([N+](=O)[O-])o2)C(=O)N1 [NITROFURANTOIN] |  | > 133 | 20.9 | > 133
Sc1ncnc2nc[nH]c12 [MERCAPTOPURINE ANHYDROUS] | > 133 |  |  | 
